Literature values, collected in patent publication US20160136091A1, “Orally Disintegrating Tablet” (SANWA KAGAKU KENKYUSHO CO., LTD., priority 2013, published 2016).

Conditions: 20+5° C.

Amount of water required to dissolve 1 g	Structure (SMILES)
less than 10 mL	OCCN1C[C@H](O)[C@@H](O)[C@H](O)[C@H]1CO [miglitol]
less than 1,000 mL	Cn1c(=O)c2[nH]cnc2n(C)c1=O [theophylline]
